Reference: patent US7589099B2, “7-t-butoxyiminomethylcamptothecin conjugated in position 20 with integrin antagonists” (priority 2004, dated 2009)
Where two headings read alike, the source gives them in different places.

Tests used:
[1] = tested on: NCI-H460 non-small cell lung carcinoma; assay: Cytotoxicity, sulphorodamine B test, NCI-H460; assay type: cell-based, human; details: 2 h of treatment (followed by 72 h of recovery), read-out: NCI-H460 IC50 ± SD
Procedure: (§1) To evaluate the effect of the compound on survival cells, the sulphorodamine B test was used. To test the effects of the compounds on cell growth, PC3 human prostate carcinoma, A498 human renal carcinoma, A2780 human ovarian carcinoma cells and NCI-H460 non-small cell lung carcinoma were used. A2780, NCI-H460 and PC3 tumor cells were grown RPMI 1640 containing 10% fetal bovine serum (GIBCO), whereas A498 tumor cells were grown in EMEM containing 10% fetal bovine serum (GIBCO).
Tumor cells were seeded in 96-well tissue culture plates (Corning) at approximately 10% confluence and were allowed to attach and recover for at least 24 h. […] The plates were incubated for 72 h at 37° C. or 2 h followed by 72 h of recovery. At the end of the treatment, the plates were washed by removal of the surnatant and addition of PBS 3 times. 200 μl PBS and 50 μl of cold 80% TCA were added. The plates were incubated on ice for at least 1 h. […]
(§2) Then 200 μl Tris 10 mM were added, the plates were kept under stirring for 20 min. The survival cell was determined as optical density by a Multiskan spectrofluorimeter at 540 nm. The amount of cells killed was calculated as the percentage decrease in sulphorodamine B binding compared with control cultures.
(§3) The IC50 values were calculated with the “ALLFIT” program.

[2] = target: T1, purified αvβ5 receptor (Homo sapiens, UniProt P06756+P18084); assay: Binding to integrin αvβ5 receptors ([125I]echistatin competition)
T1 construct: purchased Chemicon CC1020
Procedure: (§4) An aliquot of 100 μl was added to 96-well plates and incubated overnight at +4° C. Plates were washed once with buffer (50 mM Tris, pH 7.4, 100 mM NaCl, 2 mM CaCl2, 1 mM MgCl2, 1 mM MnCl2, 1% bovine serum albumin) and then incubated for another 2 hours at room temperature. Plates were washed twice with the same buffer and incubated for 3 hours at room temperature with the radioactive ligand [^125I]echistatin (Amersham Pharmacia Biotech) 0.15 nM in the presence of competition ligands. At the end of incubation, the wells were washed and the radioactivity determined using a gamma counter (Packard). Non-specific ligand binding was determined in the presence of excess cold echistatin (1 μM).
(§5) The IC50 parameter was elaborated using “ALLFIT” software.

[3] = tested on: PC3 human prostate carcinoma; assay: cells; assay type: cell-based
Procedure: as §1
(§6) Tumor cells were seeded in 96-well tissue culture plates (Corning) at approximately 10% confluence and were allowed to attach and recover for at least 24 h. […] The plates were incubated for 72 h at 37° C. or 2 h followed by 72 h of recovery. At the end of the treatment, the plates were washed by removal of the surnatant and addition of PBS 3 times. 200 μl PBS and 50 μl of cold 80% TCA were added. The plates were incubated on ice for at least 1 h. TCA was removed, the plates were washed 3 times for immersion in distilled-water and dried on paper and at 40° C. for 5 min.
(§7) Then 200 μl of 0.4% sulphorodamine B in 1% acetic acid were added. The plates were incubated at room temperature for other 30 min. Sulphorodamine B was removed, the plates were washed for immersion in 1% acetic acid for 3 times, then they were dried on paper and at 40° C. for 5 min.
as §2, §3

[4] = target: T2, purified αvβ3 receptor (Homo sapiens, UniProt P05106+P06756); assay: Binding to integrin αvβ3 receptors ([125I]echistatin competition)
T2 construct: purchased Chemicon CC1020
Procedure: as §4, with “7,4,” for “7.4,”, “0.05” for “0.15”, “Non-specific binding of the” for “Non-specific”, “ligand” for “ligand binding”
as §5

[5] = tested on: A498 human renal carcinoma; assay: cells; assay type: cell-based
Procedure: as §1, §6, §7, §2, §3

[6] = tested on: A2780 human ovarian carcinoma cells; assay: cells; assay type: cell-based
Procedure: as §1, §6, §7, §2, §3

## 20-O-Val-gimatecan [ST2678]
[1]
  IC50: 25 ± 2 nM

## CC[C@@]1(OC(=O)[C@@H](NC(=O)[C@@H](N)CC(=O)NCc2ccc(C[C@@H]3NC(=O)C(Cc4ccccc4)NC(=O)[C@H](CC(=O)O)NC(=O)CNC(=O)[C@H](CCCNC(=N)N)NC3=O)cc2)C(C)C)C(=O)OCc2c1cc1n(c2=O)Cc2c-1nc1ccccc1c2/C=N/OC(C)(C)C (stereo partly drawn) [ST2671]
[2]
  IC50: 54.2 ± 0.5 nM
[3]; 72 h
  IC50: 350 ± 80 nM
[3]; 72 h of treatment
  PC3 IC50 ± SD: potent cytotoxicity
[4]
  IC50: 22.8 ± 1.2 nM

## CN1C(=O)[C@@H](Cc2ccccc2)NC(=O)[C@H](CC(=O)O)NC(=O)CNC(=O)[C@H](CCCNC(=N)N)NC(=O)[C@@H]1Cc1ccc(CN)cc1 [ST2700]
[2]; RGD peptides, [125I]echistatin 0.15 nM, read-out: αvβ5 IC50 ± SD
  IC50: 0.9 ± 0.005 nM

## CC[C@@]1(OC(=O)[C@@H](NC(=O)CCC(=O)NCc2ccc(C[C@@H]3NC(=O)C(Cc4ccccc4)NC(=O)[C@H](CC(=O)O)NC(=O)CNC(=O)[C@H](CCCNC(=N)N)NC3=O)cc2)C(C)C)C(=O)OCc2c1cc1n(c2=O)Cc2c-1nc1ccccc1c2/C=N/OC(C)(C)C (stereo partly drawn) [ST2670]
[2]
  IC50: 74 ± 0.8 nM
[5]; 72 h
  IC50: 1600 ± 300 nM
[6]; 72 h
  IC50: 400 nM
[3]; 72 h
  IC50: 9600 ± 600 nM
[4]
  IC50: 47.7 ± 0.9 nM

## CC[C@@]1(OC(=O)[C@@H](NC(=O)[C@H](CC(=O)O)NC(=O)OC(C)(C)C)C(C)C)C(=O)OCc2c1cc1n(c2=O)Cc2c-1nc1ccccc1c2/C=N/OC(C)(C)C [ST2676, 20-O-Val-Asp-gimatecan]
[1]; Homo sapiens, NCI-H460
  IC50: 170 ± 20 nM
[5]; Homo sapiens, A498, 72 h of treatment, read-out: A498 IC50 ± SD
  IC50: 47 ± 5 nM
[6]; Homo sapiens, A2780, 72 h of treatment, read-out: A2780 IC50 ± SD
  IC50: < 0.97 nM
[3]; Homo sapiens, 72 h of treatment, read-out: PC3 IC50 ± SD
  IC50: 38 ± 4 nM
